# From US20080119439A1, “Treatment and prevention of intestinal fibrosis” (Bayer Schering Pharma Aktiengesellschaft, priority 2006, published 2008)
# How the values were obtained:
# [1] = tested on: chronic model of colon inflammation (TNBS-induced chronic colitis); assay: Study 1: chronic TNBS colitis, lipoxin A4 analog given daily together with TNBS; assay type: in vivo, BALB/c mice
# Protocol: (§1) A model of chronic inflammation induced by 7 week administration of 2,4,6-trinitrobenzenesulfonic acid (TNBS) in escalating manner was used in these studies. This model results in inflammation-driven fibrosis that associates with significant increase in intestinal content of collagen.
# (§2) The induction of chronic colitis was performed according the protocol proposed by Lawrance et al, Gastroenterology (2003) 125:1750-1761. Six- to eight-week-old female mice of the BALB/c strain were obtained from Charles River (Breeding Laboratories, Monza, Italy).
# In a first in vivo experiment, BALB/c mice of the control group (n=7) received weekly 0.1 mL of saline solution by intracolonic injections. Mice of the TNBS group (n=15) were treated for 8 weeks with escalating doses (0.5 to 1.25 mg, with a 0.25 mg increase every two weeks) of TNBS in 30% ethanol by intracolonic injections at weekly intervals. Mice of TNBS+lipoxin A4 analog group (n=15) received the same weekly TNBS administration as the TNBS-only group plus 1 mg/kg of the lipoxin A4 analog daily by intragastric administration. Mice were examined weekly for weight loss, diarrhea and rectal bleeding. Two days after the last administration of TNBS, mice were killed and colons were removed and examined. The macroscopic appearance was analyzed considering the presence of indurations, edema, thickness and evidence of mucosal hemorrhage.
# Neutrophil infiltration in the colon was monitored by measuring MPO activity using a spectrophotometric assay with trimethylbenzidine (TMB) as a substrate according to a previously published method. Activity is expressed as U per mg protein.
# For histologic examination, sections of the proximal, middle and distal colon from each animal were fixed in 10% formalin, embedded in paraffin, sectioned, and stained with haematoxylin and eosin (H&E) or Sirius Red. For the latter, sections were incubated for 30 minutes in 0.1% Sirius Red F3B containing saturated picric acid and 0.1% fast green. After rising twice with distilled water, sections were briefly dehydrated with 70% ethanol.
# Images from colon sections were acquired with a BX60 microscope (Olympus Co., Rome, Italy), digitalized using a SPOT-2 camera (Diagnostic Instruments Inc., Sterling Heights, Mich.) with a resolution of 1315×1033 pixels and analyzed using a computerized image analysis system (Image Acquisition System Ver.005, Delta Sistemi, Rome, Italy).
# Sections from the colon of each animal were examined in a blinded fashion. The degree of the inflammation and fibrosis was scored accordingly with an established method (Lawrance et al., supra; Neurath et al., J. Exp. Med. (1995) 182:1281-1290). Briefly, inflammation was scored as absent, mild, moderate or severe depending on the density and extent of inflammatory infiltrates, loss of goblet cells, and bowel wall thickening. Also, the fibrosis was scored as absent, mild, moderate or severe on the basis of the density and extent of the Sirius red-positive connective tissue staining, compared with the water-control mice.
# Quantification of the expression of mouse gene in colon tissues and intestinal fibroblasts was performed by quantitative real-time polymerase chain reaction (RT-PCR) (Heid C A 1996), using sense and antisense primers indicated in Table 1. All PCR primers were designed using PRIMER3-OUTPUT software using published sequence data from the NCBI database. Total RNA was isolated (TRIzol reagent, Invitrogen srl, Milan, Italy) from specimens taken from distal colons and intestinal fibroblasts. One microgram of purified RNA was treated with Dnasel for 15 minutes at room temperature, followed by incubation at 95° C. for 5 minutes in the presence of 2.5 mmol/L EDTA. The RNA was reverse-transcribed with Superscript III (Invitrogen srl, Milan, Italy) in 20 μL reaction volume using random primers. […]
# [2] = tested on: chronic model of colon inflammation (established TNBS colitis); assay: Study 2: established TNBS colitis, lipoxin A4 analog dosed orally after the third week of TNBS; assay type: in vivo, BALB/c mice; settings: 1 mg/kg orally, starting on week 3 after TNBS administration
# Protocol: as §1, §2
# To test the influence of lipoxin analogs in the inflammatory and fibrotic response in animals with established colitis, in a second in vivo study lipoxin A4 analog (1 mg/kg) was dosed orally starting after the third week of administration of TNBS (same protocol as described above). Mice were examined weekly for weight loss, diarrhea and rectal bleeding. Two days after the last administration of TNBS, mice were killed and colons were removed and examined. The macroscopic appearance was analyzed considering the presence of indurations, edema, thickness and evidence of mucosal hemorrhage.
# Neutrophil infiltration in the colon was monitored by measuring MPO activity using a spectrophotometric assay with trimethylbenzidine (TMB) as a substrate according to a previously published method. Activity is expressed as U per mg protein. […]
# [3] = 1 mg/kg daily intragastric, seven weeks, quantitative RT-PCR
smiles,measurement,setting,value
"O=C([O-])COC[C@H](O)[C@H](O)/C=C/C=C/C#C/C=C/[C@H](O)COc1ccc(F)cc1.[Na+] [lipoxin A4 analog, sodium 2-((2S,3R,4E,6E,10E,12S)-13-(4-fluorophenoxy)-2,3,12-trihydroxytrideca-4,6,10-trien-8-ynyloxy)acetate]","colon fibrosis development, morphometric analysis of Sirius red-stained colon","[1]; 1 mg/kg daily intragastric, administered for seven weeks, vs TNBS alone",significantly attenuated
same,colon expression of TGFβ mRNA (marker of colon fibrosis),[1]; [3],significantly attenuated
same,colon expression of fibronectin mRNA (marker of colon fibrosis),[1]; [3],significantly attenuated
same,colon expression of α-SMA mRNA (marker of colon fibrosis),[1]; [3],significantly attenuated
same,colon expression of αI collagen mRNA (marker of colon fibrosis),[1]; [3],significantly attenuated
same,colon inflammation,[1]; administered orally,attenuated
same,TGBβ protein in colon,[1]; in comparison to mice administered TNBS alone,reduced
same,efficacy when administered in a therapeutic manner (inflammatory and fibrotic response),[2],effective
